Article PMC6949113, “Preclinical evaluation of AT-527, a novel guanosine nucleotide prodrug with potent, pan-genotypic activity against hepatitis C virus” (PLoS ONE, 2020)
Values joined by “and” are separate entries in the source; they are usually repeats but may differ in a detail not shown here. Equal values may be shown once. Read-outs that look alike come from different tables or passages of the source.

Columns and labels:
human DNA polymerase γ = target: T1, human DNA polymerase γ (Homo sapiens, UniProt P54098); experiment: Human DNA polymerase inhibition assay, γ; type: biochemical
T1 construct: purchased CHIMERx (Madison, WI)
Experimental: (§1) The polymerases were purchased from CHIMERx (Madison, WI). Inhibition of DNA polymerase α activity was assayed in microtiter plates in 20 mM Tris-HCl, pH 8, 5 mM Mg acetate, 0.3 mg/mL BSA, 1mM DTT, 0.1 mM spermine, 0.05 mM dCTP, dTTP and dATP, 10 μCi ^32P-α-dGTP (800 Ci/mmol), 20 μg activated calf thymus DNA and the test compound at indicated concentrations. The DNA polymerase β and γ reaction mixture contained 50 mM Tris-HCl, pH 8.7, KCl (10 mM for β and 100 mM for γ), 10 mM MgCl2, 0.4 mg/mL BSA, 1mM DTT, 15% glycerol, 0.05 mM dCTP, dTTP and dATP, 10 μCi ^32P-α-dGTP (800 Ci/mmol), 20 μg activated calf thymus DNA and test compound at the indicated concentrations. For each assay, samples were run in triplicate, and positive controls were included. The enzyme reactions were allowed to proceed for 30 min at 37 °C followed by transfer onto glass-fiber filter plates and subsequent precipitation with 10% trichloroacetic acid (TCA). Plates were washed five times with 5% TCA, once with 95% ethanol and dried. The radioactive content of each filter was measured and used to determine the extent of inhibition of each polymerase.

K562 cells [1] = experiment: Mitochondrial toxicity assay (Mitochondrial ToxGlo, glucose/galactose); type: cell-based, human
Experimental: (§2) Mitochondrial toxicity assay. K562 leukemia cells (ATCC, CCL-243) seeded in 96-well plates (1x10^5 cells/well) were incubated in triplicate with test or positive control compounds in RPMI containing glucose, 10% FBS and 2 mM L-glutamine. […] Viability was compared with untreated cells to determine TC50 values. Separately, K562 cells were incubated in triplicate with test compounds in glucose-free RPMI supplemented with 10 mM galactose. Test compounds diluted in RPMI containing glucose were evaluated in parallel.

[2] = test system: SDH-A protein in PC3 cells; experiment: Mitobiogenesis toxicity assay, SDH-A; type: cell-based, human; settings: 5 days, read-out: Mitogenesis IC50 SDH-A
Experimental: (§3) Mitobiogenesis toxicity assay. […] One plate was used to measure cell viability by XTT staining. Cells in the remaining two plates were fixed with 4% paraformaldehyde for 20 min, washed thrice with DPBS, and 0.5% acetic acid added for 5 min to block endogenous alkaline phosphatase activity. Nuclear DNA encoded Complex II SDH-A mitochondrial protein and mitochondrial encoded Complex IV COX-1 protein were measured spectrophotometrically using the Abcam Mitobiogenesis ELISA kit (Cambridge, UK) per the manufacturer’s instructions.

PC3 cells = experiment: PC3 cytotoxicity (XTT, 5 days); type: cell-based, human
Experimental: as §3

[3] = test system: COX-1 protein in PC3 cells; experiment: Mitobiogenesis toxicity assay, COX-1; type: cell-based, human; settings: 5 days, read-out: Mitogenesis IC50 COX-1
Experimental: as §3

K562 cells [4] = experiment: K562 cytotoxicity (XTT, 3 days); type: cell-based, human
Experimental: as §2

[5] = target: human mitochondrial RNA polymerase (POLRMT) (Homo sapiens, UniProt O00411); settings: nucleotide controls; cited from earlier work
[6] = test system: HCV NS5B replicons, laboratory strains; experiment: PhenoSense HCV NS5B assay, laboratory strains; type: cell-based, hepatitis C virus
HCV GT1b replicon = HCV GT1b replicon assay (Britelite luciferase reporter)
[7] = test system: HCV strains containing resistance-associated variants (RAVs); experiment: PhenoSense HCV NS5B assay, resistance-associated variants; type: cell-based, hepatitis C virus; settings: for EC50: Hepatitis C virus
Huh-luc/neo-ET cells = settings: XTT
[8] = test system: HCV NS5B replicons from clinical isolates; experiment: PhenoSense HCV NS5B assay, clinical isolates; type: cell-based, hepatitis C virus; settings: for EC50: Hepatitis C virus
RSV = experiment: Anti-RSV assay (XTT); settings: RSV in HEp2 cells
human iPS cardiomyocytes = type: cell-based; settings: 3 days
Experimental: Cardiomyocyte assay. […] Test or positive control compounds were then added in triplicate and the incubations continued for 3 days. Cell viability was measured by XTT and CellTiter Glo staining. For the latter method, the medium was removed from test plates, replaced with CellTiter Glo reagent in fresh medium before incubating at RT for 10 min. The well contents were transferred to a white 96-well plate and luminescence measured within 15 min on a Wallac 1450 Microbeta Trilux liquid scintillation counter.

human DNA polymerase β = target: T2, human DNA polymerase β (Homo sapiens, UniProt P06746); experiment: Human DNA polymerase inhibition assay, β; type: biochemical
T2 construct: purchased CHIMERx (Madison, WI)
Experimental: as §1

[9] = individual assays, AT-511 batches 1-6, SOF in parallel

Sequence of human mitochondrial RNA polymerase (POLRMT) (O00411 42-1230): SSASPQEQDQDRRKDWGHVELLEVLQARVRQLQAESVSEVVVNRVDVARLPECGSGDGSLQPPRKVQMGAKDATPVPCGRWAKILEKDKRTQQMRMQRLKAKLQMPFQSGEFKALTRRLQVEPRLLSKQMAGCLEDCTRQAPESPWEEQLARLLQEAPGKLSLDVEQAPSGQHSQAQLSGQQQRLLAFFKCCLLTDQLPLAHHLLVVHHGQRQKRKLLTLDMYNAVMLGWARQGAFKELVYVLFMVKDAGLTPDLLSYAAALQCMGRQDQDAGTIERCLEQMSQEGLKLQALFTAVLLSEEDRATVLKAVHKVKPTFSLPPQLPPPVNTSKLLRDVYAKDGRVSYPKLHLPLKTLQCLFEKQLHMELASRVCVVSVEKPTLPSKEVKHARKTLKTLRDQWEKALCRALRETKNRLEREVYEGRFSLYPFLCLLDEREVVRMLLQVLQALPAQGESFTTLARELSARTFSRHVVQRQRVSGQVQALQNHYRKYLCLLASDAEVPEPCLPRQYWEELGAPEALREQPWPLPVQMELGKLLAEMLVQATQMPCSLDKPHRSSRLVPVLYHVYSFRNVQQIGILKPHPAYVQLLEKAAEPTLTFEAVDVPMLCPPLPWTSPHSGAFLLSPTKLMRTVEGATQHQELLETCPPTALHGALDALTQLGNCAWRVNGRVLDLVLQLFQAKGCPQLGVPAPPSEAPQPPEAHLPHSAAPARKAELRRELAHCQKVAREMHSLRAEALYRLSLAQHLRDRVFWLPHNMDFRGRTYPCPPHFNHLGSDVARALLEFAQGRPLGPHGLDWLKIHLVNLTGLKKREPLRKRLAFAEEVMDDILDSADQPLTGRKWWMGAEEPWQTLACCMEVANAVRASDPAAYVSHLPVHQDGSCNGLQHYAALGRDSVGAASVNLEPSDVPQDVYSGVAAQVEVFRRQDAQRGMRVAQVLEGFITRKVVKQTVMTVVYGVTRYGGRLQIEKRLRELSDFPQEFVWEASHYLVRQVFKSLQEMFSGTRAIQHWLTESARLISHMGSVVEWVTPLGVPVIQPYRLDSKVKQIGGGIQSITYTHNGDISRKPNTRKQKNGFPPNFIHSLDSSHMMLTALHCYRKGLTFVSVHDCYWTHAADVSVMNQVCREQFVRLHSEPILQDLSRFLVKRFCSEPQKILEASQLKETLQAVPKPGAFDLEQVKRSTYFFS
T1 sequence (P54098 whole entry): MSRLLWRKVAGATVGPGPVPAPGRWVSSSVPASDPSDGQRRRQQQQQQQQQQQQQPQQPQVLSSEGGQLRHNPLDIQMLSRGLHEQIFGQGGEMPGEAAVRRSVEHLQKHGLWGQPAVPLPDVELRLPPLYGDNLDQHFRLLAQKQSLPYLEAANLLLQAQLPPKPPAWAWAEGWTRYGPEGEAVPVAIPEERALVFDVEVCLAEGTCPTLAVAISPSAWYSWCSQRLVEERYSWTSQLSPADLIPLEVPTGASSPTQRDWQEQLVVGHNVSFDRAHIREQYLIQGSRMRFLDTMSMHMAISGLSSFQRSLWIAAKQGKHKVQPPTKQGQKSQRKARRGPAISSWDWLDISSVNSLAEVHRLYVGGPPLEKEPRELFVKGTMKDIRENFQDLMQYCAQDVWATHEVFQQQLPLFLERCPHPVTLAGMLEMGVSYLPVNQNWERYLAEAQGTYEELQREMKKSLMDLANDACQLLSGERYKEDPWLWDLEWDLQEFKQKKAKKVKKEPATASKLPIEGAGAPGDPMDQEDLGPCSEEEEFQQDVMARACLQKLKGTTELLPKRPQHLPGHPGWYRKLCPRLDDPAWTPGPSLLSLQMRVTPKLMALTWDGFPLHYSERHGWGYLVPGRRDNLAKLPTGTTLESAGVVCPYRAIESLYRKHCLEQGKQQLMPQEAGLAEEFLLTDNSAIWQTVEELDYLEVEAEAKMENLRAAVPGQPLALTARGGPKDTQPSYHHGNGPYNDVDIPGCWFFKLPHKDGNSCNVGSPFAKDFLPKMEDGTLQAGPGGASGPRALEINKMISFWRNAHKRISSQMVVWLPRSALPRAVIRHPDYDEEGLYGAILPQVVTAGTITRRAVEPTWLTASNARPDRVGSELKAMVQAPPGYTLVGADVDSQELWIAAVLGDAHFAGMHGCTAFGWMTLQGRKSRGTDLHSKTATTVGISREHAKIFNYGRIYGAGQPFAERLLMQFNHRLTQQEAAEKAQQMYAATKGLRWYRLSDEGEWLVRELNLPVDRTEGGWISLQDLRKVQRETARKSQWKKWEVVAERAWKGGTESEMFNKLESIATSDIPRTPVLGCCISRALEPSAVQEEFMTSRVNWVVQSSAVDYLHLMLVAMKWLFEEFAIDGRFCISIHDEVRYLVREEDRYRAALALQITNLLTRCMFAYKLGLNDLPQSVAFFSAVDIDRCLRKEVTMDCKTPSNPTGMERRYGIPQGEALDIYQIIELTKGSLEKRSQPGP

Nc1nc2c(ncn2[C@@H]2O[C@H](COP(=O)(O)OP(=O)(O)OP(=O)(O)O)[C@@H](O)[C@H]2F)c(=O)[nH]1 [2’-fluoro-2’-dGTP, reference compound]
IC50 (human DNA polymerase γ): 10.4 µM

C[C@@H]1CC[C@@]2(OC1)O[C@H]1[C@@H](O)[C@H]3[C@@H]4CC[C@H]5C[C@@H](O[C@@H]6O[C@H](CO)[C@H](O[C@@H]7O[C@H](CO)[C@@H](O)[C@H](O[C@@H]8OC[C@@H](O)[C@H](O)[C@H]8O)[C@H]7O[C@@H]7O[C@H](CO)[C@H](O)[C@H](O[C@@H]8O[C@H](CO)[C@@H](O)[C@H](O)[C@H]8O)[C@H]7O)[C@H](O)[C@H]6O)[C@H](O)C[C@]5(C)[C@H]4CC[C@]3(C)[C@H]1[C@@H]2C [Digitonin]
IC50 (K562 cells [1]; Homo sapiens, K562, 2 h, read-out: MF (Gal) IC50, mitochondrial function): 27.9 µM | IC50 (K562 cells [1]; Homo sapiens, K562, glucose-free galactose medium, 2 h, measure of necrosis, read-out: MI (Gal) IC50, cell membrane integrity): 31.9 µM | IC50 ([2]; Homo sapiens, PC-3, 120 h): 40.7 µM | Cytotoxicity TC50 (PC3 cells; PC3 cells, 5 days, XTT): 27.2 µM | IC50 ([3]; Homo sapiens, PC-3, 120 h): 32.6 µM | Cytotoxicity TC50 (K562 cells [4]; K562 cells, glucose medium, 3 days, XTT): 8.1 µM

Nc1nc2c(ncn2[C@@H]2O[C@H](COP(=O)(O)OP(=O)(O)OP(=O)(O)O)[C@@H](O)[C@H]2O)c(=O)[nH]1 [GTP]
kpol [5]: 21 ± 1 s⁻¹

CC(C)OC(=O)[C@H](C)N[P@](=O)(OC[C@H]1O[C@@H](n2ccc(=O)[nH]c2=O)[C@](C)(F)[C@@H]1O)Oc1ccccc1 [SOF, sofosbuvir]
EC95 ([6]; GT1a H77): 0.719 µM | EC95 ([6]; GT1b Con-1): 0.545 µM | EC50 ([6]; GT1b Con-1 (control reference)): 0.0894 µM | EC95 ([6]; GT3a S52): 0.7 µM | EC50 ([6]; Hepatitis C virus, GT1A, GT1a H77): 0.0834 µM | EC50 ([6]; Hepatitis C virus, GT1B, GT1b Con-1 (control reference)): 0.089 µM | EC50 ([6]; Hepatitis C virus, GT2A, GT2a JFH-1): 0.0507 µM | EC50 ([6]; Hepatitis C virus, GT3A, GT3a S52): 0.117 µM | EC50 ([6]; Hepatitis C virus, GT4A, GT4a ED43): 0.158 µM | EC50 ([6]; Hepatitis C virus, GT5A, GT5a SA13): 0.287 µM | EC50 ([6]; Hepatitis C virus, read-out: range in EC50 values across genotypes, panel of six laboratory strains): 0.051 to 0.287 µM | fold range in EC50 values across genotypes ([6]; laboratory strains): 5.6 fold | EC50 (HCV GT1b replicon; Hepatitis C virus, GT1B, read-out: EC50 range, range over all assays): 0.033 to 0.068 µM | EC50 (HCV GT1b replicon; Hepatitis C virus, GT1B, read-out: mean EC50, mean (± SD) of all assays): 0.048 ± 0.01 µM | EC50 (HCV GT1b replicon; [9]): 0.0523 µM and 0.0465 µM and 0.0675 µM and 0.0327 µM and 0.0483 µM and 0.0404 µM and 0.0476 µM and 0.0481 µM | EC95 (HCV GT1b replicon; [9]): 0.36 µM and 0.231 µM and 0.387 µM and 0.197 µM and 0.247 µM and 0.198 µM and 0.275 µM and 0.263 µM | mean EC95 (HCV GT1b replicon; mean (± SD) of all assays): 0.27 ± 0.07 µM and 0.27 µM | EC50 (HCV GT1b replicon; read-out: EC50 range, range over all assays): 0.0327 to 0.0675 µM | EC50 (HCV GT1b replicon; read-out: mean EC50, mean (± SD) of all assays): 0.0479 µM | EC95 ([7]; GT1a 2_C316N): 0.473 µM | EC95 ([7]; GT1a 2c1_L159F): 1.068 µM | EC95 ([7]; GT1a 2c2_L159F_S282T): 16.95 µM | EC95 ([7]; GT1a H77_C316N): 0.469 µM | EC95 ([7]; GT1a H77_S282T): 7.23 µM | EC95 ([7]; GT1b Con-1_L159F): 0.715 µM | EC95 ([7]; GT1b Con-1_S282T): 7.23 µM | EC95 ([7]; GT2b 2_L159F): 0.539 µM | EC50 ([7]; GT1A, GT1a 2_C316N): 0.0739 µM | EC50 ([7]; GT1A, GT1a 2c1_L159F): 0.115 µM | EC50 ([7]; GT1A, GT1a 2c2_L159F_S282T): 1.62 µM | EC50 ([7]; GT1A, GT1a H77_C316N): 0.0572 µM | EC50 ([7]; GT1A, GT1a H77_S282T): 1.4 µM | EC50 ([7]; GT1B, GT1b Con-1_L159F): 0.111 µM | EC50 ([7]; GT1B, GT1b Con-1_S282T): 0.95 µM | EC50 ([7]; GT2B, GT2b 2_L159F): 0.0792 µM | shift in EC50 versus reference strain lacking S282T ([7]; strains with S282T): 15 fold | shift in EC95 versus reference strain lacking S282T ([7]; strains with S282T): 19 fold | toxicity to the replicon cells, none up to highest concentration tested (Huh-luc/neo-ET cells): > 1 µM | TC50 (Huh-luc/neo-ET cells; individual assays): >1 µM | EC50 ([8]; GT1A, clinical isolate GT1a): 0.0627 µM | EC50 ([8]; GT1B, clinical isolate GT1b): 0.086 µM | EC50 ([8]; GT2A, clinical isolate GT2a): 0.0225 µM | EC50 ([8]; GT2B, clinical isolate GT2b): 0.0448 µM | EC50 ([8]; GT3A, clinical isolate GT3a-1): 0.126 µM | EC50 ([8]; GT3A, clinical isolate GT3a-2): 0.123 µM | EC50 ([8]; GT4A, clinical isolate GT4a): 0.0749 µM | EC50 ([8]; clinical isolate GT4d): 0.0937 µM | EC50 ([8]; read-out: range in EC50 values, eight clinical-isolate replicons): 0.023 to 0.126 µM | EC95 ([8]; clinical isolate GT1a): 0.508 µM | EC95 ([8]; clinical isolate GT1b): 0.642 µM | EC95 ([8]; clinical isolate GT2a): 0.195 µM | EC95 ([8]; clinical isolate GT2b): 0.295 µM | EC95 ([8]; clinical isolate GT3a-1): 0.69 µM | EC95 ([8]; clinical isolate GT3a-2): 0.808 µM | EC95 ([8]; clinical isolate GT4a): 0.681 µM | EC95 ([8]; clinical isolate GT4d): 1.02 µM | fold range in EC50 values ([8]; clinical isolates): 5.5 fold | fold range in EC95 values ([8]; clinical isolates): 5.2 fold

Cc1ccc(CCCO)c(NCc2ccc3nc(NCCCN4CCOCC4)n(Cc4nc(C)ccc4O)c3c2)c1 [TMC-353121]
EC50 (RSV): 0.003 µM | TC50 (HEp2 cells): >0.10 µM

O=c1ccn([C@@H]2O[C@H](COP(=O)(O)OP(=O)(O)OP(=O)(O)O)[C@@H](O)[C@H]2O)c(=O)[nH]1 [UTP]
kpol [5]: 17 ± 1 s⁻¹

Nc1ccn([C@H]2CC[C@@H](CO)O2)c(=O)n1 [ddC]
IC50 (K562 cells [1]; K562, glucose-free galactose medium, 2 h, inhibition of cellular ATP levels, read-out: MF (Gal) IC50, mitochondrial function): > 20 µM | IC50 (K562 cells [1]; K562, glucose-free galactose medium, 2 h, measure of necrosis, read-out: MI (Gal) IC50, cell membrane integrity): > 20 µM | IC50 [2]: > 20 µM | Cytotoxicity TC50 (PC3 cells): >20 µM | IC50 [3]: 1.1 µM | Cytotoxicity TC50 (K562 cells [4]): >20 µM

COc1cc2nc(N3CCN(C(=O)C4COc5ccccc5O4)CC3)nc(N)c2cc1OC (centres unmarked) [doxazosin]
TC50 (human iPS cardiomyocytes): 18 µM

C[C@H](CCC(=O)O)[C@H]1CC[C@H]2[C@@H]3CC[C@@H]4C[C@H](O)CC[C@]4(C)[C@H]3CC[C@]12C [lithocholic acid, reference compound]
IC50 (human DNA polymerase β): 2.91 µM
